Assay results as given in patent US12503452B2 (Curza Global, LLC, priority 2019, dated 2025).
Where a name gives a salt, the structure may show the parent alone. Read-outs that look alike come from different tables or passages of the source.

Key:
[1] = test system: E. coli S30 extract (bacterial protein synthesis); test: E. coli S30 extract coupled transcription-translation luciferase assay (inhibition of bacterial protein synthesis); format: biochemical; conditions: read-out: S30 IC50 (μM/% inhib.)
Procedure, shortened: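 Cell-free coupled transcription-translation in E. coli S30 circular-DNA extract, with pBESTluc plasmid as template and complete amino acid mix. Eight 2-fold compound dilutions were incubated with the extract 1 h at 37 °C, chilled, then luciferase luminescence was read. % inhibition was taken relative to no-inhibitor wells; no-DNA wells gave background.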

[2] = target: Rabbit Reticulocyte Lysate (eukaryotic protein synthesis); test: Rabbit reticulocyte lysate luciferase assay (inhibition of eukaryotic protein synthesis); format: biochemical; conditions: read-out: Rabbit reticulocyte IC50 (μM/% inhib.)
Procedure, shortened: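 Nuclease-treated rabbit reticulocyte lysate translating luciferase control RNA, with complete amino acids, was incubated at 30° C. for 90 minutes with 2-fold serial compound dilutions. Luminescence was measured after adding luciferase reagent. % inhibition was relative to water controls, with no-RNA wells as background.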

A. baumannii (Ab) = test: Broth microdilution minimum inhibitory concentration (MIC); format: cell-based; conditions: Acinetobacter baumannii, read-out: Ab + bicarb MIC
Procedure, shortened: (§1)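 CLSI broth microdilution (M07-A9, slightly modified) in CAMHB, optionally with 6.25 or 25 mM sodium bicarbonate or 0–50% heat-inactivated human serum. Two-fold serial dilutions (8 concentrations, triplicate) were inoculated at 5×10^4 CFU/well from 0.5 McFarland cultures grown at 35±2 °C.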

E. coli (Ec) = test: as above; format: cell-based; conditions: Escherichia coli, read-out: E. coli + bicarb MIC
Procedure, shortened: as §1

E. faecalis (Ef) = test: as above; format: cell-based; conditions: Enterococcus faecalis, read-out: Ef + bicarb MIC
Procedure, shortened: as §1

P. aeruginosa (Pa) = test: as above; format: cell-based; conditions: for MIC: Pseudomonas aeruginosa, read-out: Pa MIC + bicarb
Procedure, shortened: as §1

S. aureus (Sa) = test: as above; format: cell-based; conditions: Staphylococcus aureus, read-out: Sa + bicarb MIC
Procedure, shortened: as §1

[3] = class by IC50 or % inhibition @ 1 μM
[4] = A. baumannii, growth medium supplemented with sodium bicarbonate
[5] = E. coli, growth medium supplemented with sodium bicarbonate
[6] = E. faecalis, growth medium supplemented with sodium bicarbonate
[7] = P. aeruginosa, growth medium supplemented with sodium bicarbonate
[8] = S. aureus, growth medium supplemented with sodium bicarbonate
[9] = A. baumannii, growth medium with sodium bicarbonate
[10] = E. coli, growth medium with sodium bicarbonate
[11] = E. faecalis, growth medium with sodium bicarbonate
[12] = P. aeruginosa, growth medium with sodium bicarbonate
[13] = S. aureus, growth medium with sodium bicarbonate

| Compound | IC50 [1, 3] | IC50 [2, 3] | MIC (A. baumannii (Ab); [4]) | MIC (E. coli (Ec); [5]) | MIC (E. faecalis (Ef); [6]) | MIC (P. aeruginosa (Pa); [7]) | MIC (S. aureus (Sa); [8]) | MIC (A. baumannii (Ab); [9]) | MIC (E. coli (Ec); [10]) | MIC (E. faecalis (Ef); [11]) | MIC (P. aeruginosa (Pa); [12]) | MIC (S. aureus (Sa); [13]) | Pa MIC + bicarb (P. aeruginosa (Pa); [12]) | IC50 ([1]; % inhibition @ 1 μM) | IC50 ([2]; % inhibition @ 1 μM) | MIC (A. baumannii (Ab)) | MIC (E. coli (Ec)) | MIC (E. faecalis (Ef)) | MIC (P. aeruginosa (Pa)) | MIC (S. aureus (Sa)) |
| --- | --- | --- | --- | --- | --- | --- | --- | --- | --- | --- | --- | --- | --- | --- | --- | --- | --- | --- | --- | --- |
| CC(Cc1ccc(-n2ccc(NC(=O)N3CCN(C(=O)C(C)(C)N)CC3)nc2=O)cc1)NC[C@@H]1CCC[C@@H](N)C1 (mixture of isomers) [Compound 155] | > 1 µM | > 1 µM | > 32 µg/mL | < 8 µg/mL | > 32 µg/mL | > 32 µg/mL | 8 to 32 µg/mL |  |  |  |  |  |  |  |  |  |  |  |  |  |
| C[C@@H]1CN(C(=O)C(C)(C)N)CCN1C(=O)Nc1ccn(-c2ccc(CN3CCC(CN)CC3)cc2)c(=O)n1 [Compound 82] | < 0.5 µM | > 1 µM | 8 to 32 µg/mL | < 8 µg/mL | < 8 µg/mL | > 32 µg/mL | < 8 µg/mL |  |  |  |  |  |  |  |  |  |  |  |  |  |
| CC(C)(N)C(=O)N1CCN(C(=O)Nc2ccn(-c3ccc(CN[C@@H]4CC[C@H](N)C4)cc3)c(=O)n2)CC1 [Compound 114] | < 0.5 µM | > 1 µM | > 32 µg/mL | < 8 µg/mL | > 32 µg/mL | > 32 µg/mL | > 32 µg/mL |  |  |  |  |  |  |  |  |  |  |  |  |  |
| CCN(Cc1ccc(-n2ccc(NC(=O)N3CCN(C(=O)C(C)(C)N)CC3)nc2=O)cc1C)C1CCC(N)CC1 (stereo not drawn) [Compound 285] | < 0.5 µM | > 1 µM |  |  |  |  |  | < 8 µg/mL | < 8 µg/mL | < 8 µg/mL | 8 to 32 µg/mL | < 8 µg/mL |  |  |  |  |  |  |  |  |
| CC(Cc1ccc(-n2ccc(NC(=O)N3CCN(C(=O)C(C)(C)N)CC3)nc2=O)cc1)N(C)[C@H]1CC[C@@H](N)CC1 (stereo partly drawn) [Compound 175] | < 0.5 µM | > 1 µM |  |  |  |  |  | > 32 µg/mL | < 8 µg/mL | < 8 µg/mL |  | < 8 µg/mL | ++ (An MIC value (μg/mL) that is 8 μg/mL or greater and less than 32 μg/mL) |  |  |  |  |  |  |  |
| CC(C)(N)C(=O)N1CCN(C(=O)Nc2ccn(-c3ccc(CC4(N5CCC(N)CC5)CC4)cc3)c(=O)n2)CC1 [Compound 373] |  |  |  |  |  |  |  | > 32 µg/mL | < 8 µg/mL | 8 to 32 µg/mL | > 32 µg/mL | < 8 µg/mL |  | > 1 µM | > 1 µM |  |  |  |  |  |
| CCN(Cc1ccc(-n2ccc(NC(=O)N3CCN(C(=O)C(C)(C)N)C[C@H]3C)nc2=O)cc1)C1CCC(N)CC1 (stereo partly drawn) [Compound 275] | < 0.5 µM | > 1 µM |  |  |  |  |  | < 8 µg/mL | < 8 µg/mL | < 8 µg/mL | 8 to 32 µg/mL | < 8 µg/mL |  |  |  |  |  |  |  |  |
| CC(C)(N)C(=O)N1CCN(C(=O)Nc2ccn(-c3ccc(CN4CCC(N)CC4)cc3)c(=O)n2)C(CO)C1 (stereo not drawn) [Compound 62] | < 0.5 µM | > 1 µM | > 32 µg/mL | < 8 µg/mL | > 32 µg/mL | > 32 µg/mL | > 32 µg/mL |  |  |  |  |  |  |  |  |  |  |  |  |  |
| C[C@@H]1CN(Cc2ccc(-n3ccc(NC(=O)N4CCN(C(=O)C(C)(C)N)CC4)nc3=O)cc2)CC[C@H]1N [Compound 210] | < 0.5 µM | > 1 µM |  |  |  |  |  | > 32 µg/mL | < 8 µg/mL | < 8 µg/mL | > 32 µg/mL | < 8 µg/mL |  |  |  |  |  |  |  |  |
| C[C@@H]1CN(C(=O)C(C)(C)N)CCN1C(=O)Nc1ccn(-c2ccc(CN3CCC(N)CC3)cc2)c(=O)n1 [Compound 61] | < 0.5 µM | > 1 µM | > 32 µg/mL | < 8 µg/mL | 8 to 32 µg/mL | > 32 µg/mL | < 8 µg/mL |  |  |  |  |  |  |  |  |  |  |  |  |  |
| CC(CN1CCC[C@H](N)CC1)c1ccc(-n2ccc(NC(=O)N3CCN(C(=O)C(C)(C)N)CC3)nc2=O)cc1 (stereo partly drawn) [Compound 290] | 0.5 to 1 µM | > 1 µM |  |  |  |  |  | < 8 µg/mL | < 8 µg/mL | < 8 µg/mL | > 32 µg/mL | < 8 µg/mL |  |  |  |  |  |  |  |  |
| CC(C)(N)C(=O)N1CCN(C(=O)Nc2ccn(-c3ccc(CN4CC[C@@H](N)[C@H](CO)C4)cc3)c(=O)n2)CC1 [Compound 227] | > 1 µM | > 1 µM |  |  |  |  |  | > 32 µg/mL | 8 to 32 µg/mL | > 32 µg/mL | > 32 µg/mL | > 32 µg/mL |  |  |  |  |  |  |  |  |
| CCN(Cc1ccc(-n2ccc(NC(=O)N3CCN(C(=O)[C@@H](C)N)CC3)nc2=O)cc1)C1CCC(N)CC1 (stereo partly drawn) [Compound 358] |  |  |  |  |  |  |  | > 32 µg/mL | < 8 µg/mL | 8 to 32 µg/mL | > 32 µg/mL | < 8 µg/mL |  | 0.5 to 1 µM | > 1 µM |  |  |  |  |  |
| NC1CCCN(CCc2ccc(-n3ccc(NC(=O)N4CC5(CC(N)C5)C4)nc3=O)cc2)CC1 (stereo not drawn) [Compound 193] | < 0.5 µM | > 1 µM |  |  |  |  |  | > 32 µg/mL | < 8 µg/mL | 8 to 32 µg/mL | > 32 µg/mL | < 8 µg/mL |  |  |  |  |  |  |  |  |
| CC(C)(N)C(=O)N1CCN(C(=O)Nc2ccn(-c3ccc(CN4CC(C5CCNCC5)C4)cc3)c(=O)n2)CC1 [Compound 377] |  |  |  |  |  |  |  | > 32 µg/mL | < 8 µg/mL | > 32 µg/mL | > 32 µg/mL | < 8 µg/mL |  | < 0.5 µM | > 1 µM |  |  |  |  |  |
| CC(C)(N)C(=O)N1CCN(C(=O)Nc2ccn(-c3ccc(C4CO[C@@H](CN)CN4)cc3)c(=O)n2)CC1 (stereo partly drawn) [Compound 352, hydrochloride salt] |  |  |  |  |  |  |  |  |  |  |  |  |  | < 0.5 µM | > 1 µM | > 32 µg/mL | 8 to 32 µg/mL | > 32 µg/mL | > 32 µg/mL | > 32 µg/mL |
| C[C@@H]1CN(C(=O)Nc2ccn(-c3ccc(CCN4CCCC(N)CC4)cc3)c(=O)n2)CCN1C(=O)C(C)(C)N (stereo partly drawn) [Compound 71] | < 0.5 µM | > 1 µM | < 8 µg/mL | < 8 µg/mL | < 8 µg/mL | 8 to 32 µg/mL | < 8 µg/mL |  |  |  |  |  |  |  |  |  |  |  |  |  |
| CC(C)(N)C(=O)N1CCN(C(=O)Nc2ccn(-c3ccc(CN4CCCC(N)CC4)c(F)c3)c(=O)n2)CC1 (stereo not drawn) [Compound 334, hydrochloride salt] | < 0.5 µM | > 1 µM |  |  |  |  |  |  |  |  |  |  |  |  |  | > 32 µg/mL | < 8 µg/mL | > 32 µg/mL | > 32 µg/mL | 8 to 32 µg/mL |
